Measurements taken from PubChem BioAssay (NCI).
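Compound exposure: 48 hours, 5 concentrations, 96-well plates. TGI: concentration producing complete growth inhibition.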

Key:
Assay in all cases: NCI tumour cell line growth inhibition, 48 h
[1] = test system: 786-0 renal
[2] = test system: A498 renal
[3] = test system: ACHN renal
[4] = test system: BT-549 breast
[5] = test system: CAKI-1 renal
[6] = test system: CCRF-CEM leukemia
[7] = test system: DU-145 prostate
[8] = test system: EKVX NSCLC
[9] = test system: HCC-2998 colon
[10] = test system: HCT-116 colon
[11] = test system: HCT-15 colon
[12] = test system: HL-60(TB) leukemia
[13] = test system: HOP-62 NSCLC
[14] = test system: HOP-92 NSCLC
[15] = test system: HS 578T breast
[16] = test system: IGROV1 ovarian
[17] = test system: K-562 leukemia
[18] = test system: KM12 colon
[19] = test system: LOX IMVI melanoma
[20] = test system: M14 melanoma
[21] = test system: MALME-3M melanoma
[22] = test system: MDA-MB-231 breast
[23] = test system: MDA-MB-435
[24] = test system: MOLT-4 leukemia
[25] = test system: NCI-H226 lung
[26] = test system: NCI-H23 lung
[27] = test system: NCI-H522 lung
[28] = test system: OVCAR-3 ovarian
[29] = test system: OVCAR-5 ovarian
[30] = test system: OVCAR-8 ovarian
[31] = test system: PC-3 prostate
[32] = test system: SF-268 CNS
[33] = test system: SF-295 CNS
[34] = test system: SF-539 CNS
[35] = test system: SK-MEL-5 melanoma
[36] = test system: SK-OV-3 ovarian
[37] = test system: SN12C renal
[38] = test system: SNB-19 CNS
[39] = test system: SNB-75 CNS
[40] = test system: T-47D breast
[41] = test system: TK-10 renal
[42] = test system: U251 CNS
[43] = test system: UACC-62 melanoma
[44] = test system: UO-31 renal
[45] = test system: A549 NSCLC
[46] = test system: COLO 205 colon
[47] = test system: HT29 colon
[48] = test system: NCI-H460 lung
[49] = test system: NCI/ADR-RES ovarian
[50] = test system: RPMI-8226 leukemia
[51] = test system: RXF 393 renal
[52] = test system: SK-MEL-2 melanoma
[53] = test system: SK-MEL-28 melanoma
[54] = test system: SW-620 colon
[55] = test system: UACC-257 melanoma
[56] = test system: MCF7 breast
[57] = test system: OVCAR-4 ovarian
[58] = test system: SR leukemia

SMILES: C=C(C=O)c1c2c(nc3ccccc13)C(=O)c1ccccc1C2=O
- TGI [1]: > 100 µM
- TGI [2]: 3.76 µM
- TGI [3]: 1.7 µM
- TGI [4]: 3.57 µM
- TGI [5]: 0.795 µM
- TGI [6]: 0.792 µM
- TGI [7]: 0.982 µM
- TGI [8]: 3.61 µM
- TGI [9]: > 100 µM
- TGI [10]: 3.48 µM
- TGI [11]: 1.01 µM
- TGI [12]: 15.9 µM
- TGI [13]: 2.48 µM
- TGI [14]: 5.23 µM
- TGI [15]: 0.961 µM
- TGI [16]: 2.19 µM
- TGI [17]: > 22.5 µM
- TGI [18]: 2.71 µM
- TGI [19]: 45 µM
- TGI [20]: 1.6 µM
- TGI [21]: 3.27 µM
- TGI [22]: 3.27 µM
- TGI [23]: > 100 µM
- TGI [24]: 0.997 µM
- TGI [25]: 1.97 µM
- TGI [26]: 2.85 µM
- TGI [27]: 2.09 µM
- TGI [28]: 2.35 µM
- TGI [29]: 4.92 µM
- TGI [30]: 2.3 µM
- TGI [31]: 10.6 µM
- TGI [32]: 3.02 µM
- TGI [33]: 2.76 µM
- TGI [34]: 0.605 µM
- TGI [35]: 0.339 µM
- TGI [36]: 12.8 µM
- TGI [37]: 41.3 µM
- TGI [38]: 2.8 µM
- TGI [39]: 2.18 µM
- TGI [40]: 3.29 µM
- TGI [41]: 2.32 µM
- TGI [42]: > 100 µM
- TGI [43]: 2.59 µM
- TGI [44]: > 29 µM

SMILES: CCSC1=N/C(=C\c2ccccc2O)C(Nc2ccc(C)cc2)=N1
- TGI [1]: > 100 µM
- TGI [2]: > 100 µM
- TGI [45]: > 100 µM
- TGI [3]: > 100 µM
- TGI [4]: > 100 µM
- TGI [5]: > 100 µM
- TGI [6]: > 100 µM
- TGI [46]: > 100 µM
- TGI [7]: > 100 µM
- TGI [8]: > 100 µM
- TGI [10]: > 100 µM
- TGI [11]: > 100 µM
- TGI [12]: > 100 µM
- TGI [13]: > 100 µM
- TGI [14]: > 100 µM
- TGI [15]: > 100 µM
- TGI [47]: > 100 µM
- TGI [16]: > 100 µM
- TGI [17]: > 100 µM
- TGI [18]: > 100 µM
- TGI [19]: > 100 µM
- TGI [20]: > 100 µM
- TGI [21]: > 100 µM
- TGI [22]: > 100 µM
- TGI [23]: > 100 µM
- TGI [24]: > 100 µM
- TGI [25]: > 100 µM
- TGI [26]: > 100 µM
- TGI [48]: > 100 µM
- TGI [27]: 94.4 µM
- TGI [49]: > 100 µM
- TGI [28]: 67.3 µM
- TGI [29]: > 100 µM
- TGI [30]: > 100 µM
- TGI [31]: > 100 µM
- TGI [50]: > 100 µM
- TGI [51]: > 100 µM
- TGI [32]: > 100 µM
- TGI [33]: > 100 µM
- TGI [34]: > 100 µM
- TGI [52]: > 100 µM
- TGI [53]: > 100 µM
- TGI [35]: > 100 µM
- TGI [36]: > 100 µM
- TGI [37]: > 100 µM
- TGI [38]: > 100 µM
- TGI [39]: > 100 µM
- TGI [54]: > 100 µM
- TGI [40]: > 100 µM
- TGI [41]: > 100 µM
- TGI [42]: > 100 µM
- TGI [55]: > 100 µM
- TGI [43]: > 100 µM
- TGI [44]: > 100 µM

SMILES: O=C1c2ccccc2-c2nnc(-c3ccccc3)cc21
- TGI [1]: > 10 µM
- TGI [45]: > 10 µM
- TGI [3]: > 10 µM
- TGI [5]: > 10 µM
- TGI [6]: > 10 µM
- TGI [46]: > 10 µM
- TGI [12]: > 10 µM
- TGI [13]: > 10 µM
- TGI [16]: > 10 µM
- TGI [17]: > 10 µM
- TGI [20]: > 10 µM
- TGI [21]: > 10 µM
- TGI [56]: > 10 µM
- TGI [23]: > 10 µM
- TGI [24]: > 10 µM
- TGI [26]: > 10 µM
- TGI [48]: > 10 µM
- TGI [49]: > 10 µM
- TGI [57]: > 10 µM
- TGI [29]: > 10 µM
- TGI [50]: > 10 µM
- TGI [51]: > 10 µM
- TGI [32]: > 10 µM
- TGI [52]: > 10 µM
- TGI [53]: > 10 µM
- TGI [35]: > 10 µM
- TGI [36]: > 10 µM
- TGI [39]: > 10 µM
- TGI [58]: > 10 µM
- TGI [54]: > 10 µM
- TGI [40]: > 10 µM
- TGI [42]: > 10 µM
- TGI [43]: > 10 µM
